Assay results taken from patent US20210283261A1, “Compositions and Methods for Treating ALK-Mediated Cancer” (ICAHN SCHOOL OF MEDICINE AT MOUNT SINAI, priority 2017, published 2021).

The molecules below were run against T1, ALK fusion protein (Homo sapiens, UniProt Q9UM73) (assay: Western blot of ALK fusion protein levels in NCI-H3122 cells). Conditions: NCI-H3122, NCI-H3122 cells, 500 nM, Western blot; read-out: ALK fusion protein degradation, NCI-H3122 (500 nM).
T1 construct: endogenous in cells; host or cells: NCI-H3122; the other entry of the earlier key: EML4 (Q9HC35, Echinoderm microtubule-associated protein-like 4)
T1 sequence (Q9UM73 with tags, fused parts or gaps): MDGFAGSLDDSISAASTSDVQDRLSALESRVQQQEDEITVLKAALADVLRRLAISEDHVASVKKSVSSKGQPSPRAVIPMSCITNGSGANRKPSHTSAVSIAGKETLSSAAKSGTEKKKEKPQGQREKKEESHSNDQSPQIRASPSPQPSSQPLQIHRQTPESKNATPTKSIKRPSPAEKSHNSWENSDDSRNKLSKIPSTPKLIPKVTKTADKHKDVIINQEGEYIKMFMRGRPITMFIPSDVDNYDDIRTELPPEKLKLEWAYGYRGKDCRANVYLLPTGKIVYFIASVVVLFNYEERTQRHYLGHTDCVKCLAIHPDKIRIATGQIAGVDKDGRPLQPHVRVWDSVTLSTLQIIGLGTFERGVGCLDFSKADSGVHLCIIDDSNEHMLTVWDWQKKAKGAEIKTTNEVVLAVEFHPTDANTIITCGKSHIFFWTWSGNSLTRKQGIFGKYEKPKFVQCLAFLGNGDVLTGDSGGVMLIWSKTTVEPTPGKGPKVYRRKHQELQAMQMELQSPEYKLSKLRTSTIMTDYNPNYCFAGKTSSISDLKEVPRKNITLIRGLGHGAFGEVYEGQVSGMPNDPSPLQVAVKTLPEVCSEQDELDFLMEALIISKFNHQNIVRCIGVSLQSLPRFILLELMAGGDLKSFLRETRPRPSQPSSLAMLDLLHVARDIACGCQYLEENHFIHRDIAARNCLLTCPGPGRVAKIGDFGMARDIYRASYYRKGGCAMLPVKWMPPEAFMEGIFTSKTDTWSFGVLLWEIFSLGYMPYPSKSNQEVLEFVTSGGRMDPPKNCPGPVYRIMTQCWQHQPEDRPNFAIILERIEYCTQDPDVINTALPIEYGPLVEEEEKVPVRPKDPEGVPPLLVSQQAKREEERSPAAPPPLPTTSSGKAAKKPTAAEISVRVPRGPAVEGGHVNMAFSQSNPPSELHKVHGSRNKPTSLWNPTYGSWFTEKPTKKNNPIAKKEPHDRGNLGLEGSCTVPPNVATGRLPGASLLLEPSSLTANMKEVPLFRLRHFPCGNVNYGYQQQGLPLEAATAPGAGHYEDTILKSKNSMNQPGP
Format: cell-based
Description: SU-DHL-1, NCI-H3122 and NCI-H2228 cells were cultured in RPMI-1640 medium supplemented with 10% fetal bovine serum, 50 μg/mL penicillin and streptomycin. Cells were cultured in a 37° C. incubator with 5% CO2.
Cells were washed with cold PBS once and lysed in 1× Laemmli loading buffer directly. Lysates were heated at 99° C. for […], and resolved on 4-15% precast SDS-PAGE (BIO-RAD) and transferred onto PVDF membrane. Membrane was blocked in 5% milk in Tris-buffered saline and Tween 20 (TBST) for 1 h at room temperature, followed by incubation with a primary antibody overnight at 4° C., and a horseradish peroxidase (HRP)-conjugated secondary antibody for 1 h at room temperature. The membrane was imaged by a ChemiDoc MP imaging system (BIO-RAD). Antibodies against GAPDH (abeam), Phospho-ALK (Tyr1507), ALK (Cell Signaling Technology), Tubulin (Santa Cruz) were purchased commercially. […]
In the case of `Cc1cc(Nc2ncc(Cl)c(Nc3ccccc3S(=O)(=O)C(C)C)n2)c(OC(C)C)cc1C1CCN(C(=O)CNc2cccc3c2C(=O)N(C2CCC(=O)NC2=O)C3=O)CC1` (stereo not shown) [CZ47-01, 4-((2-(4-(4-((5-Chloro-4-((2-(isopropylsulfonyl)phenyl)amino)pyrimidin-2-yl)amino)-5-isopropoxy-2-methylphenyl)piperidin-1-yl)-2-oxoethyl)amino)-2-(2,6-dioxopiperidin-3-yl)isoindoline-1,3-dione], the Dmax at 0.5 µM is reported as < 20%.
In the case of `Cc1cc(Nc2ncc(Cl)c(Nc3ccccc3S(=O)(=O)C(C)C)n2)c(OC(C)C)cc1C1CCN(C(=O)CCNc2cccc3c2C(=O)N(C2CCC(=O)NC2=O)C3=O)CC1` (stereo not shown) [CZ47-02, 4-((3-(4-(4-((5-Chloro-4-((2-(isopropylsulfonyl)phenyl)amino)pyrimidin-2-yl)amino)-5-isopropoxy-2-methylphenyl)piperidin-1-yl)-3-oxopropyl)amino)-2-(2,6-dioxopiperidin-3-yl)isoindoline-1,3-dione], the Dmax at 0.5 µM is reported as 20 to 80%.
With `Cc1cc(Nc2ncc(Cl)c(Nc3ccccc3S(=O)(=O)C(C)C)n2)c(OC(C)C)cc1C1CCN(C(=O)CCCNc2cccc3c2C(=O)N(C2CCC(=O)NC2=O)C3=O)CC1` (stereo not shown) [CZ47-03, 4-((4-(4-(4-((5-Chloro-4-((2-(isopropylsulfonyl)phenyl)amino)pyrimidin-2-yl)amino)-5-isopropoxy-2-methylphenyl)piperidin-1-yl)-4-oxobutyl)amino)-2-(2,6-dioxopiperidin-3-yl)isoindoline-1,3-dione] the Dmax at 0.5 µM was 20 to 80%.
`Cc1cc(Nc2ncc(Cl)c(Nc3ccccc3S(=O)(=O)C(C)C)n2)c(OC(C)C)cc1C1CCN(C(=O)CCCCNc2cccc3c2C(=O)N(C2CCC(=O)NC2=O)C3=O)CC1` (stereo not shown) [CZ47-04, 4-((5-(4-(4-((5-Chloro-4-((2-(isopropylsulfonyl)phenyl)amino)pyrimidin-2-yl)amino)-5-isopropoxy-2-methylphenyl)piperidin-1-yl)-5-oxopentyl)amino)-2-(2,6-dioxopiperidin-3-yl)isoindoline-1,3-dione] was tested, and the Dmax at 0.5 µM was 20 to 80%.
For `Cc1cc(Nc2ncc(Cl)c(Nc3ccccc3S(=O)(=O)C(C)C)n2)c(OC(C)C)cc1C1CCN(C(=O)CCCCCNc2cccc3c2C(=O)N(C2CCC(=O)NC2=O)C3=O)CC1` (stereo not shown) [CZ47-05, 4-((6-(4-(4-((5-Chloro-4-((2-(isopropylsulfonyl)phenyl)amino)pyrimidin-2-yl)amino)-5-isopropoxy-2-methylphenyl)piperidin-1-yl)-6-oxohexyl)amino)-2-(2,6-dioxopiperidin-3-yl)isoindoline-1,3-dione], the Dmax at 0.5 µM was < 20%.
For `Cc1cc(Nc2ncc(Cl)c(Nc3ccccc3S(=O)(=O)C(C)C)n2)c(OC(C)C)cc1C1CCN(C(=O)CCCCCCNc2cccc3c2C(=O)N(C2CCC(=O)NC2=O)C3=O)CC1` (stereo not shown) [CZ47-06, 4-((7-(4-(4-((5-Chloro-4-((2-(isopropylsulfonyl)phenyl)amino)pyrimidin-2-yl)amino)-5-isopropoxy-2-methylphenyl)piperidin-1-yl)-7-oxoheptyl)amino)-2-(2,6-dioxopiperidin-3-yl)isoindoline-1,3-dione], the Dmax at 0.5 µM was < 20%.
With `Cc1cc(Nc2ncc(Cl)c(Nc3ccccc3S(=O)(=O)C(C)C)n2)c(OC(C)C)cc1C1CCN(C(=O)CCCCCCCNc2cccc3c2C(=O)N(C2CCC(=O)NC2=O)C3=O)CC1` (stereo not shown) [CZ47-07, 4-((8-(4-(4-((5-Chloro-4-((2-(isopropylsulfonyl)phenyl)amino)pyrimidin-2-yl)amino)-5-isopropoxy-2-methylphenyl)piperidin-1-yl)-8-oxooctyl)amino)-2-(2,6-dioxopiperidin-3-yl)isoindoline-1,3-dione] the Dmax at 0.5 µM was 20 to 80%.
For `Cc1cc(Nc2ncc(Cl)c(Nc3ccccc3S(=O)(=O)C(C)C)n2)c(OC(C)C)cc1C1CCN(C(=O)CCOCCNc2cccc3c2C(=O)N(C2CCC(=O)NC2=O)C3=O)CC1` (stereo not shown) [CZ47-08, 4-((2-(3-(4-(4-((5-Chloro-4-((2-(isopropylsulfonyl)phenyl)amino)pyrimidin-2-yl)amino)-5-isopropoxy-2-methylphenyl)piperidin-1-yl)-3-oxopropoxy)ethyl)amino)-2-(2,6-dioxopiperidin-3-yl)isoindoline-1,3-dione], the Dmax at 0.5 µM was > 80%.
`Cc1cc(Nc2ncc(Cl)c(Nc3ccccc3S(=O)(=O)C(C)C)n2)c(OC(C)C)cc1C1CCN(C(=O)CCOCCOCCNc2cccc3c2C(=O)N(C2CCC(=O)NC2=O)C3=O)CC1` (stereo not shown) [CZ47-09, 4-((2-(2-(3-(4-(4-((5-Chloro-4-((2-(isopropylsulfonyl)phenyl)amino)pyrimidin-2-yl)amino)-5-isopropoxy-2-methylphenyl)piperidin-1-yl)-3-oxopropoxy)ethoxy)ethyl)amino)-2-(2,6-dioxopiperidin-3-yl)isoindoline-1,3-dione] was tested, and the Dmax at 0.5 µM was > 80%.
In the case of `Cc1cc(Nc2ncc(Cl)c(Nc3ccccc3S(=O)(=O)C(C)C)n2)c(OC(C)C)cc1C1CCN(C(=O)CCOCCOCCOCCNc2cccc3c2C(=O)N(C2CCC(=O)NC2=O)C3=O)CC1` (stereo not shown) [CZ47-10, 4-((2-(2-(2-(3-(4-(4-((5-Chloro-4-((2-(isopropylsulfonyl)phenyl)amino)pyrimidin-2-yl)amino)-5-isopropoxy-2-methylphenyl)piperidin-1-yl)-3-oxopropoxy)ethoxy)ethoxy)ethyl)amino)-2-(2,6-dioxopiperidin-3-yl)isoindoline-1,3-dione], the Dmax at 0.5 µM is reported as < 20%.
With `Cc1cc(Nc2ncc(Cl)c(Nc3ccccc3S(=O)(=O)C(C)C)n2)c(OC(C)C)cc1C1CCN(C(=O)CCOCCOCCOCCOCCNc2cccc3c2C(=O)N(C2CCC(=O)NC2=O)C3=O)CC1` (stereo not shown) [CZ47-11, 4-((15-(4-(4-((5-Chloro-4-((2-(isopropylsulfonyl)phenyl)amino)pyrimidin-2-yl)amino)-5-isopropoxy-2-methylphenyl)piperidin-1-yl)-15-oxo-3,6,9,12-tetraoxapentadecyl)amino)-2-(2,6-dioxopiperidin-3-yl)isoindoline-1,3-dione] the Dmax at 0.5 µM was 20 to 80%.
With `Cc1cc(Nc2ncc(Cl)c(Nc3ccccc3S(=O)(=O)C(C)C)n2)c(OC(C)C)cc1C1CCN(C(=O)CCOCCOCCOCCOCCOCCNc2cccc3c2C(=O)N(C2CCC(=O)NC2=O)C3=O)CC1` (stereo not shown) [CZ47-12, 4-((18-(4-(4-((5-Chloro-4-((2-(isopropylsulfonyl)phenyl)amino)pyrimidin-2-yl)amino)-5-isopropoxy-2-methylphenyl)piperidin-1-yl)-18-oxo-3,6,9,12,15-pentaoxaoctadecyl)amino)-2-(2,6-dioxopiperidin-3-yl)isoindoline-1,3-dione] the Dmax at 0.5 µM was 20 to 80%.
`Cc1cc(Nc2ncc(Cl)c(Nc3ccccc3S(=O)(=O)C(C)C)n2)c(OC(C)C)cc1C1CCN(C(=O)COCC(=O)N[C@H](C(=O)N2C[C@H](O)C[C@H]2C(=O)NCc2ccc(-c3scnc3C)cc2)C(C)(C)C)CC1` [CZ47-13, (2S,4R)-1-((S)-2-(2-(2-(4-(4-((5-Chloro-4-((2-(isopropylsulfonyl)phenyl)amino)pyrimidin-2-yl)amino)-5-isopropoxy-2-methylphenyl)piperidin-1-yl)-2-oxoethoxy)acetamido)-3,3-dimethylbutanoyl)-4-hydroxy-N-(4-(4-methylthiazol-5-yl)benzyl)pyrrolidine-2-carboxamide] was tested, and the Dmax at 0.5 µM was 20 to 80%.
